Experimental data from publication PMC12249711, “Comprehensive Evaluation of 1H-Isoindole-1,3(2H)-Dione Derivatives: Pharmacokinetic Studies and Analgesic Potential in Various Pain Models” (International Journal of Molecular Sciences, 2025).

Experiments:
mice = assay: Formalin test; type: in vivo, Albino Swiss mice; details: for Reduction of pain response, inflammatory phase: phase II (15–30 min)
Description: The pain reaction was induced by intraplantar (i.pl.) injection of 20 μL of 2.5% formalin solution into the right hind paw of the mouse (n = 136). […] Time (in seconds) spent on licking or biting the injected hind paw in selected intervals, 0–5 min (neurogenic phase) and 15–30 min (inflammatory phase), was measured in each group and was an indicator of nociceptive behavior. The procedure was based on the method described by with some modifications by.

rats = assay: Carrageenan-induced mechanical hyperalgesia (pain pressure threshold, Randall-Selitto); type: in vivo, Wistar rats; details: for Pain Threshold: 20 mg/kg i.p., mean ± SEM, rats; for Increase in pain threshold: 20 mg/kg, vs control
Description: The acute and local inflammation and paw edema was induced by intraplantar (i.pl.) injection of 0.1 mL of 1% carrageenan solution in PBS into the rat’s right hind paw, according to the modified method of Winter and Lence, as described previously; (n = 84). The paw volume was measured using the dislocation of the water column of the plethysmometer (Type a, 7140; Plethysmometer, Ugo Basile, Gemonio, Italy) before (V0) and at 1, 2, and 3 h (V1, V2, V3) after i.pl. carrageenan injection. […] Vehicle (1% Tween 80) was administered by the same route as the tested compounds.
Furthermore, we performed the pain pressure threshold test to assess heightened sensitivity to mechanical stimuli. The experiment was conducted based on the method described by Randall and Selitto [58], with certain modifications. An analgesymeter (AnalgesyMeter 37215, Ugo Basile, Gemonio, Italy) was used to gradually apply increasing pressure (measured in grams) to the plantar surface of the right hind paw of the rat until paw withdrawal occurred. At this point, the intensity of the applied force (in grams) was recorded as the withdrawal threshold. The maximum force intensity was set at 250 g. Carrageenan induces a decrease in the nociceptive threshold in response to a mechanical stimulus, a condition referred to as hyperalgesia. For each rat, paw withdrawal thresholds were recorded both before (0 h) and 1, 2, and 3 h after carrageenan administration (i.e., 3.5 h after intraperitoneal pretreatment with the tested compounds). […] The analgesic effect of the tested compounds was assessed in comparison with the control group (1% Tween 80); the injection was performed intraperitoneally within 30 min of carrageenan administration. An analgesic effect occurs when the compound administered produces a pain response with greater pressure than the control group.

CC(C(=O)O)c1cccc(C(=O)c2ccccc2)c1 (stereo not drawn) [Ketoprofen, ketoprofen, reference compound]
Reduction of pain reaction (licking duration), neurogenic phase (mice; phase I (0–5 min), 20 mg/kg i.p., vs vehicle): 59.7% | Reduction of neurogenic pain, neurogenic phase (mice; phase I, ketoprofen doses other than 20 mg/kg): did not show a statistically significant reduction | Reduction of pain response, inflammatory phase (mice; 10 mg/kg i.p., vs vehicle): 23.2% | Reduction of pain response, inflammatory phase (mice; 20 mg/kg i.p., vs vehicle): 59.9% | Reduction of pain response, inflammatory phase (mice; 50 mg/kg, vs vehicle): 71.8% | Pain Threshold (rats; 0 h (before carrageenan)): 130 ± 2.9 g | Pain Threshold (rats; 1 h after carrageenan): 155.8 ± 5.2 g | Pain Threshold (rats; 2 h after carrageenan): 187.5 ± 9.0 g | Pain Threshold (rats; 3 h after carrageenan): 178.3 ± 11.7 g | Increase in pain threshold (rats; 1 h): 19.8% | Increase in pain threshold (rats; 2 h): 38% | Increase in pain threshold (rats; 3 h): 33.8%
